Patent publication US9371330B2, “Substituted pyrazino[1,2-a]pyrimidines useful as CBP/catenin antagonists for enhancing asymmetric division of somatic stem cells” (University of Southern California, priority 2011, dated 2016)
Read-outs that look alike come from different tables or passages of the source.

Assays:
[1] = biological target: p300/beta-catenin interaction (Homo sapiens, UniProt Q09472); experiment: disruption of p300/beta-catenin interaction; type: binding
Text: (§1) Applicant next mapped the binding domains between CBP and beta-catenin, as well as between p300 and beta-catenin. The C-terminal trans-activating region of beta-catenin (647-781) interacted with the same 1-111 amino acids of both CBP and p300 (23). However, only the interaction between CBP and beta-catenin was disrupted by ICG-001, and not the p300/beta-catenin interaction.

hair follicle = conditions: cited from earlier work
colorectal cancer cells = experiment: colorectal cancer cells: survivin and cytotoxicity; type: cell-based
Text: (§2) Cancer. The importance of Wnt signaling in colorectal cancer is undisputed. Applicant's investigation on the therapeutic utility of ICG-001 therefore quite naturally began with colon cancer.

SW620 xenograft = experiment: nude mouse SW620 xenograft model of colon cancer; conditions: in vivo
Text: as §2

[2] = system: Wnt/catenin transcription in SW480 colon carcinoma cells; experiment: TOPFLASH TCF/catenin luciferase reporter; type: cell-based; conditions: Homo sapiens
Text: (§3) ICG-001. Applicant's pharmacologic tools were identified using cell-based forward chemical genomic screens of small molecule secondary structure template chemical libraries (22).

[3] = system: drug resistant leukemia stem cells; experiment: NOD/SCID/IL2rγ-/- mouse model of engrafted human CML; type: in vivo
Text: Chronic myelogenous leukemia (CML). Despite the stunning clinical success achieved to date in chronic phase CML patients treated with the BCR-ABL antagonist Gleevec/Imatinib (IM), responses in advanced phase patients are often short-lived, and patients invariably undergo disease progression. Furthermore, resistance to IM develops in 2% to 4% of patients annually and IM dose escalation is generally not sufficient to control the disease. Several mechanisms that contribute to tyrosine kinase inhibitor (TKI) resistance have been proposed including the insensitivity of quiescent CML stem cells to TKIs due to low expression of BCR-ABL and the emergence of drug resistant leukemic clones associated with increased nuclear catenin levels, a hallmark of increased Wnt/catenin transcription. […] Epigenetic silencing of negative regulators of the Wnt signaling cascade is also frequently associated with leukemias, including CML. […] The mice treated with one course (28 days from day 13-41 after leukemia engraftment) of CBP/catenin antagonist plus bcr-abl antagonist are essentially cured of leukemia and live as long (approximately 2 years) as their littermates that were never engrafted with leukemia.

[4] = system: bleomycin-induced pulmonary fibrosis; experiment: bleomycin-induced lung injury / pulmonary fibrosis; type: in vivo, mouse
Min mouse = Min mouse polyps; conditions: in vivo
Text: as §2

elastin = experiment: ex vivo human skin assay, qRT-PCR of elastin; type: cell-based; conditions: 24 hrs; 5 uM ICG-001, 5 uM methylated ICG-001, 1 ug/ml RA
Description: Methods. Ex Vivo human skin assay culture conditions were based upon a paper by Varani J et al Experimental and Molecular Pathology, 2004.
Briefly, human skin (surgical waste from plastic surgery procedures) was obtained and the subcutaneous layer of fat was trimmed manually with a scalpel. The skin was then cut into small fragments about 2 mm square and placed in 6 well plates. 1 ml of keratinocyte culture medium (Gibco 10724-011) with 1% P/S (penstrep antibiotic) was added to each well. The epidermis, bathed in media was placed facing up. On the next day (overnight culture in the media above), the skin fragments were transferred to fresh wells that contained either 5 uM ICG-001, 5-uM methylated ICG-001 or 1 ug/ml of retinoic acid (RA). After 24 hrs, skin samples in culture were removed for RNA isolation and qRT-PCR analysis of genes of interest (e.g. elastin (a gene involved in skin appearance and pliability (e.g., wrinkling) and aquaporin 1, which is involved with hydration.

[5] = system: rat type II lung epithelial cells; experiment: TGF-β1-induced EMT genes in rat type II lung epithelial cells; type: cell-based
Text: Fibrosis. Idiopathic pulmonary fibrosis (IPF)/usual interstitial pneumonia (UIP), the most common of the idiopathic interstitial pneumonias, is a devastating, progressive disorder characterized by excessive fibroblast proliferation and extracellular matrix remodeling leading to lung destruction. There is currently no effective therapy for this uniformly fatal disease. An emerging paradigm proposes a central role for alveolar epithelial cell injury and dysregulated repair in the pathogenesis of IPF. Injury to the epithelium is thought to initiate a cascade of fibroblast activation and matrix deposition, which in predisposed hosts fails to resolve as it would in the course of normal wound repair. Epithelial cells undergo excessive apoptosis, whereas fibroblasts are less amenable to apoptosis and manifest increased survival. The well-characterized model of bleomycin-induced lung injury has been extensively used to investigate potential pathways involved in the pathogenesis of pulmonary fibrosis and to explore therapeutic approaches.

CBP = CBP (Homo sapiens, UniProt Q92793); experiment: binding to coactivator CBP (affinity chromatography; binding and isothermal calorimetry)
Text: as §3, §1

PC-12 cells = PC-12 cells with FAD mutant PS-1 (L286V): neuronal differentiation; type: cell-based
Text: However, the effects of PS-1 mutations on the stability of beta-catenin, TCF/beta-catenin signaling, and thereby its potential role in AD remain controversial. Applicant has shown that introduction of a FAD mutant PS-1 (L286V) into PC-12 cells causes increased TCF/beta-catenin signaling, leading to the inhibition of neurite outgrowth. […] In the CNS, EpB2 expression is associated with axonal guidance (16). […] In initial in vivo studies, applicant treated penta-transgenic mice that over express mutant APP(695) (Swedish (K670N,M671L), Florida ([…]) and London (V717I)) and PS-1 (M146L and L286V) mutations with ICG-001 for 2 months (months 2-4). These mice normally develop massive cerebral deposition of Aβ starting at 6 weeks of age.

CBP, sequence (Q92793 whole entry): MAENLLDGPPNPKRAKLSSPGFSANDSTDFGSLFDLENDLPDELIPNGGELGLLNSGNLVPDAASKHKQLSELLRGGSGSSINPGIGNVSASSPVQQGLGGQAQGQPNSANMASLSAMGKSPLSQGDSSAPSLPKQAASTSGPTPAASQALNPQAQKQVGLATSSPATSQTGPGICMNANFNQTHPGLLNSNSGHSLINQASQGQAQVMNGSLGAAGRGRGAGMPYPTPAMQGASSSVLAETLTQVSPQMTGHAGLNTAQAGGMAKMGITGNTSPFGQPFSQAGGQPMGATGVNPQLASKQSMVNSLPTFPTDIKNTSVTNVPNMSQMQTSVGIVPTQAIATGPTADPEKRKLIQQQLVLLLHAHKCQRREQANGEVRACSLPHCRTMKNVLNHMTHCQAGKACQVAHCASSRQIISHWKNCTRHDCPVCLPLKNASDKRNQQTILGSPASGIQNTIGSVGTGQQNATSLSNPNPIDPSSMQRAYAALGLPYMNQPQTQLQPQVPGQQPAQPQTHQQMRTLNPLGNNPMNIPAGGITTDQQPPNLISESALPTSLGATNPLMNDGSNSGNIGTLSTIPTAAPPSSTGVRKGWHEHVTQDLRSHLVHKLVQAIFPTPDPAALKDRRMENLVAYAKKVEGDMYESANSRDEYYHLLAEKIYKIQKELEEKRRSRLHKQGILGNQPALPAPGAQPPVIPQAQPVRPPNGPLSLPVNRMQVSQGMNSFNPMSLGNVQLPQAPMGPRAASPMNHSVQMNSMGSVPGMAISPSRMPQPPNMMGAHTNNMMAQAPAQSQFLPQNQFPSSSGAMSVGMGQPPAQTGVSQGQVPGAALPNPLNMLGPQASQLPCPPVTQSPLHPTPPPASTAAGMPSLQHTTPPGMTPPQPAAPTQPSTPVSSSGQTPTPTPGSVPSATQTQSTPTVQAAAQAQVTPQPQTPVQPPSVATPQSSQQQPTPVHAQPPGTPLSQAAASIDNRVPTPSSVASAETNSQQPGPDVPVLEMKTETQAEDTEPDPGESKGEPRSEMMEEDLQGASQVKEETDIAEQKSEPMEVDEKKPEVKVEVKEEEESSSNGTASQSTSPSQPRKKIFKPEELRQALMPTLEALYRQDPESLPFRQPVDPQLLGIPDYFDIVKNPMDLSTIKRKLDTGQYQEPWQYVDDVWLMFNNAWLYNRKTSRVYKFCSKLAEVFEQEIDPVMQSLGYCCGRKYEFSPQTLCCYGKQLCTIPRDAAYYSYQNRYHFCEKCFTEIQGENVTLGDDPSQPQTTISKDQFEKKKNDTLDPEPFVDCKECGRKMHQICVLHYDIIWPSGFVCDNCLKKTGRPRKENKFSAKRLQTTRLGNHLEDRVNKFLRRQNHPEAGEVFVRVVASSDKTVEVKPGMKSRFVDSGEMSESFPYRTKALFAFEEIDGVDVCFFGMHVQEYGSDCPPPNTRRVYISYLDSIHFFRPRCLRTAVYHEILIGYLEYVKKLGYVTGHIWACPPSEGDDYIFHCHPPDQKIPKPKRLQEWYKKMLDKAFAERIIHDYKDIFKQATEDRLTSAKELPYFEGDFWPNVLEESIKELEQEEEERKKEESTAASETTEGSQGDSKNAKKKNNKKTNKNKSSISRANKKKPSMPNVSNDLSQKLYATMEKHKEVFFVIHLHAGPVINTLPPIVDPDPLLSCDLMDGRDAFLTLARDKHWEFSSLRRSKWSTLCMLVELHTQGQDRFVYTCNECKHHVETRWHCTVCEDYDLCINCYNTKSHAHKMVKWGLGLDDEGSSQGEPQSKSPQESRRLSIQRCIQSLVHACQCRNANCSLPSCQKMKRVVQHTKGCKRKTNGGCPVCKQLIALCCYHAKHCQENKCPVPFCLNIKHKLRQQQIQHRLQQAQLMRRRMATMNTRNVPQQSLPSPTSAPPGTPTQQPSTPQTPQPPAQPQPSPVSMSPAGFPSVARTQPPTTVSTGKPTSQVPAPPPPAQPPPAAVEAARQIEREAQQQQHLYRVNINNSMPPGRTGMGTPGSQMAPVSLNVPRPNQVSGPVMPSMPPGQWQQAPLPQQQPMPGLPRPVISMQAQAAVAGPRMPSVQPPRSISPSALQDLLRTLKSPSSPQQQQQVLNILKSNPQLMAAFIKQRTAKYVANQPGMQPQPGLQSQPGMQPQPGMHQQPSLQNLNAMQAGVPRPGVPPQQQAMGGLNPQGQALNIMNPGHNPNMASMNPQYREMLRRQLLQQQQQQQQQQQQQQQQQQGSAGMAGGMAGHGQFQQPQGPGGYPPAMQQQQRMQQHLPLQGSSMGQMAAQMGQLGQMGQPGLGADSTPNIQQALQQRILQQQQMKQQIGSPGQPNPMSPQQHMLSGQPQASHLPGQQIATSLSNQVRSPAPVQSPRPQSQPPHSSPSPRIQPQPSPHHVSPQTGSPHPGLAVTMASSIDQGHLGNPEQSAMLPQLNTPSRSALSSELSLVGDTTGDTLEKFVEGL
p300/beta-catenin interaction, sequence (Q09472 1-111): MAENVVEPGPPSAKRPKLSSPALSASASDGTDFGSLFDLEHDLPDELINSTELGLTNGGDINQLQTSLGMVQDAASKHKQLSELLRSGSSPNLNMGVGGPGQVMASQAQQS

In the case of `O=C1[C@H](Cc2ccc(O)cc2)N2C(=O)CCN(C(=O)NCc3ccccc3)[C@H]2CN1Cc1cccc2ccccc12` [ICG-001], the “effect on the p300/beta-catenin interaction” value [1] is given as “without affecting the p300/beta-catenin interaction”, the survivin expression (hair follicle) is given as “decreased survivin expression” and the hair fiber elongation (hair follicle; dose-dependent) is given as “significantly reduced hair fiber elongation”. The survivin expression (colorectal cancer cells) was “down-regulated survivin”, the cytotoxicity (colorectal cancer cells; colorectal cancer cells vs normal colonic epithelial cells) was “selective cytotoxicity in colorectal cancer cells, but not in normal colonic epithelial cells” and the tumor growth (SW620 xenograft) was “reducing tumor growth”. For the same molecule, the IC50 [2] was 3000 nM, the “effect on normal endogenous hematopoiesis” value ([3]; mouse, in vivo) was “without deleterious effects to normal endogenous hematopoiesis” and the “elimination of drug resistant leukemia stem cells” value ([3]; with bcr-abl antagonist) was “drug resistant leukemia stem cells can be eliminated”. For the same molecule, the “bleomycin-induced lacZ expression in airway and alveolar epithelium” value ([4]; BAT-gal transgenic mice) was “significantly reduced”, the “expression of S100A4/FSP-1” value ([4]; bleomycin model in vivo in the mouse and fibroblasts from IPF patients in vitro) was “significantly decreased the expression of S100A4/FSP-1” and the established fibrosis ([4]; mouse, in vivo) was “could reverse established fibrosis”. For the same molecule, the “severity of pulmonary fibrosis” value ([4]; pretreatment) was “significantly reduced the severity of pulmonary fibrosis”, the polyps (Min mouse) was “reducing polyps” and the expression of elastin (elastin) was “increase”. The “TGF-β1-induced up-regulation of α-SMA and type I collagen” value [5] was “prevents the TGF-β1-induced up-regulation of α-SMA and type I collagen”, the Kd (CBP; affinity chromatography approach, read-out: binding affinity to the coactivator CBP) was about 1 nM and the Kd (CBP; binding and isothermal calorimetry studies, read-out: binding affinity to the N-terminus of CBP) was about 1 nM. The GAP43 expression (PC-12 cells; NGF-induced differentiation, vs untreated cells) was “dramatically increased” and the “neuronal differentiation and neurite outgrowth” value (PC-12 cells; PS-1 (L286V) mutant cells) was “rescues the defects in neuronal differentiation and neurite outgrowth”.
